Data set [1] concerns bryostatin-1-induced HIV-1 reactivation in Jurkat-LAT-GFP cells. In words: Effect of PKC/MEK inhibitors on bryostatin-1-induced GFP expression in Jurkat-LAT-GFP cells. The settings on record: Jurkat-LAT-GFP cells preincubated with inhibitor, then bryostatin-1 (10 nM) 6 h. The format is cell-based. The method, then:
The primary interest in Bryostatins has been initiated by recognition of the potent antiproliferative effects against various tumour cells. Such effects have been related to the ability of Bryo-1 to modulate protein kinase C (PKC) activity by activating or degrading certain isoforms of PKC. Since PKC activation mediates different signal pathways that in turn activate the transcription of latent HIV-1, we preincubated Jurkat-LAT-GFP cells with medium or the chemical inhibitors Gö6976 (classical PKCs inhibitor), Gö66850 (classical and novel PKCs inhibitor), Gö6983 (pan-PKC inhibitor), rottlerin (PKCδ inhibitor) and PD98059 (MEK inhibitor) at effective concentrations.
Jurkat LAT-GFP cells were pretreated with the indicated inhibitors for 30 min at the indicated dose, and then stimulated with bryostatin-1 (10 nM) for 6 h. The percentage of GFP+ cells was measured by flow cytometry. Results, shown in FIG. 9, are represented as percentage of activation compared to cells treated with agonists in the absence of the chemical inhibitors (100% activation). The chemical inhibitors Gö6976 (classical PKCs inhibitor), Gö6850 (classical and novel PKCs inhibitor), Gö6983 (pan-PKC inhibitor), rottlerin (PKCδ inhibitor) and PD98059 (MEK inhibitor) were used at the indicated concentrations.

Data set [2] concerns HIV-1 latency in Jurkat-LAT-GFP cells. In words: HIV-1 reactivation in Jurkat-LAT-GFP cells (percentage of GFP+ cells by flow cytometry). The settings on record: for HIV-1 reactivation: 10 nM. The class given is cell-based. On the technique in general: In flow cytometry, cells or beads pass a laser one at a time.
For data set [3], the system named is CD4. In words: Cell surface expression of CD4 on MT-2 cells by flow cytometry. The class given is cell-based, human. As to the method:
(§1) This effect, shown in FIG. 12, is mediated though a PKC-dependent pathway and is not affected by the presence of VPA. MT-2 cells were treated with 10 nM of bryostatin in the presence or absence of either the PKC inhibitor Gö6850 or the HDAC inhibitor VPA for 24 h and the expression of CD4 and CXCR4 analysed. Cell surface expression of CD4 and CXCR4 antigens were measured by direct fluorescence using specific mAbs and analyzed by flow cytometry in an EPIC XL flow cytometer (Beckman-Coulter Inc. CA, USA). The anti-CXCR4 (clone 12G5, PE-labeled) was from BD Biosciences Pharmigen (San Diego, Calif., USA). The mAb anti-CD4 (clone 6D10, FITC-labelled) was from ImmunoTools (Friesoythe, Del.). Dual-Color Reagent Mouse IgG1/FITC+ Mouse IgG1/PE from DAKO (clone DAK-GO1 directed towards Aspergillus niger glucose oxidase) was used as negative control.

Data set [4] concerns CXCR4. The data set is described as follows: Cell surface expression of CXCR4 on MT-2 cells by flow cytometry. The class given is cell-based, human. The method, then: as §1
The subject of data set [5] is HIV-1 latent infected cells. The settings on record: three of four patients; VPA 500-750 mg twice a day; cited from earlier work.
Data set [6] concerns IκBα. In words: Western blot of IκBα phosphorylation and degradation (NF-κB pathway) in Jurkat-LAT-GFP cells. The format is cell-based. As to the method: (§2) Jurkat-LAT-GFP cells were stimulated with increasing concentrations of bryostatin-1 and the phosphorylation and degradation of the NF-κB inhibitor Iκbα, and the phosphorylation (activation) of the MAPKs, ERK and JNK, were investigated by western blots using specific mAbs.
(§3) Jurkat LAT-GFP cells were incubated with either bryostatin-1 (1, 10, 25, 50 and 100 nM) or with prostratin (0.01, 0.05, 0.1, 0.5, 1 and 10 μM) for 10 min. IκBα phosphorylation and degradation, the phosphorylation status of MAPKs ERK 1+2 and JNK 1+2, and the steady state levels of total ERK 1+2 were analyzed using specific antibodies by western blots. Control and treated cells were washed with PBS and proteins extracted in 50 μl of lysis buffer (20 mM Hepes pH 8.0, 10 mM KCl, 0.15 mM EGTA, 0.15 mM EDTA, 0.5 mM Na3VO4, 5 mM NaFl, 1 mM DTT, leupeptin 1 μg/ml, pepstatin 0.5 μg/ml, aprotinin 0.5 μg/ml, and 1 mM PMSF) containing 0.5% NP-40. Protein concentration was determined by the Bradford assay (Bio-Rad, Richmond, Calif., USA) and thirty μg of proteins were boiled in Laemmli buffer and electrophoresed in 10% SDS/polyacrylamide gels. Separated proteins were transferred to nitrocellulose membranes (0.5 A at 100 V; 4° C.) for 1 h. […]
(In general: In western blotting, separated proteins are transferred to a membrane and probed.)

The subject of data set [7] is MAPKs ERK1+2 and JNK1+2. In words: Western blot of phosphorylation (activation) of MAPKs ERK and JNK in Jurkat-LAT-GFP cells. The format is cell-based. As to the method:
as §2, §3

Data set [8] relates to HIVIIIB variant of HIV-1. The data set is described as follows: Virus-induced cytotoxicity assay (HIV-1-induced cell death in CEM-SS cells, XTT). The format is cell-based. The method, then: The human T-lymphoblastic cell line CEM-SS was used as the target cell line and virus infections were performed using the HIVIIIB variant of HIV-1 (FIG. 13). Briefly, increasing concentrations of bryostatins (1, 2, 3 and AB) or 3TC (a known inhibitor of HIV RT) were incubated with 5,000 CEM-SS cells and HIVIIIB in a final volume of 200 μl/well at 37° C. for 6 days. After 6 days, 50 μl/well of XTT dye was added and the plate incubated for 4 hours at 37° C. The plate was then read at 450 nm with a reference at 630 nm and the percent CPE, percent inhibition, percent toxicity, effective concentration 50 (EC50), cytotoxic concentration (CC50) and the selective index (CC50/EC50) were calculated. Plates contained the following controls: media, cellular and viral.
A general note: Tetrazolium dyes change colour on reduction, which living cells bring about.

For data set [9] the following is noted: cited from earlier work.
Setting [10] is: MT-2 cells, 10 nM bryostatin, 24 h.
[11] abbreviates: increasing concentrations of bryostatin-1.

“Also recorded” adds a separate entry of the source.

In the case of `CN(C)CCCn1cc(C2=C(c3c[nH]c4ccccc34)C(=O)NC2=O)c2ccccc21` [Gö6850], the “Inhibition of GFP expression induced by Bryostatin-1” value (from here on “Inhibition of GFP expression induced”) in data set [1] was “strongly inhibited”.
As to `Cn1c2ccccc2c2c3c(c4c5ccccc5n(CCC#N)c4c21)CNC3=O` [Gö6976], in data set [1], the “Inhibition of GFP expression induced” value is given as “strongly inhibited”.
Still for that read-out and setting: as for `COc1ccc2c(c1)c(C1=C(c3c[nH]c4ccccc34)C(=O)NC1=O)cn2CCCN(C)C` [Gö6983], the entry is “strongly inhibited”.
As for `COc1cccc(-c2cc(=O)c3ccccc3o2)c1N` [PD98059], the “Inhibition of GFP expression induced” value in data set [1] is “partially inhibited”.
Consider `CC(/C=C/C(=O)NO)=C\[C@@H](C)C(=O)c1ccc(N(C)C)cc1` [TSA, trichostatin A, reference compound], for which the “Synergy with bryostatin-1 to antagonise HIV-1 latency” value in [2] is reported as “synergises”.
For `CCCC(CCC)C(=O)O` [Valproic acid, valproic acid, reference compound], the “Synergy with bryostatin-1 to antagonise HIV-1 latency” value in data set [2] was “synergises”. Moreover, the “Effect of VPA on bryostatin-induced CD4 downregulation” value in [3] (setting [10]) is “not affected”. Further, in data set [4] (setting [10]), the “Effect of VPA on bryostatin-induced CXCR4 downregulation” value is “not affected”. Besides, the “Depletion of HIV-1 latent infected cells in patients” value in [5] is “significant depletion”.
As usually defined, the EC50 is the midpoint of the concentration-response curve. In the case of `CCC/C=C/C=C/C(=O)O[C@H]1/C(=C/C(=O)OC)C[C@H]2C[C@H]([C@@H](C)O)OC(=O)C[C@H](O)C[C@@H]3C[C@H](OC(C)=O)C(C)(C)[C@](O)(C[C@@H]4C/C(=C/C(=O)OC)C[C@H](/C=C/C(C)(C)[C@]1(O)O2)O4)O3` [bryostatin-1], the “HIV-1 reactivation in the presence of valproic acid” value in data set [2] is listed as “can induce HIV-1 reactivation”. Further, the HIV-1 reactivation result in [2] (Jurkat-LAT-GFP cells) was “strongly induce HIV-1 reactivation; also recorded: fully reactivates HIV-1 latency”. Also, in data set [2] (Jurkat-LAT-GFP cells, 6 h, versus prostratin), the “Potency to antagonize HIV-1 latency relative to prostratin” value was 100 Fold. Also, the “HIV-1 reactivation (GFP+ cells)” value in [2] (bryostatin-1 100 nM, Jurkat-LAT-GFP cells) is 87 % of GFP+ cells. For the same compound, in data set [2] (in combination with HDACs inhibitors), the “Reduction of the bryostatin-1 concentration allowed by HDACs inhibitors” value was “at least one order of magnitude”. In addition, the “IκBα phosphorylation and degradation” value in data set [6] (10 nM) is recorded as “does not induce”. The “Phosphorylation and degradation of IκBα” value in data set [6] (setting [11]) is “induced phosphorylation and degradation”. In addition, in [7] (10 nM), the JNK activation result is “does not induce”. Also, in [7] (setting [11]), the “Activation of the MAPKs ERK1+2 and JNK1+2” value is listed as “in a concentration dependent manner”. Besides, the “Expression of HIV-1 receptor CD4” value in data set [3] (10 nM) was “downregulates”. Also, the “Expression of HIV-1 receptor CXCR4” value in data set [4] (10 nM) is “downregulates”. The same compound had an EC50 in data set [8] of 26 nM. For the same compound, in [9], the “Tissue accumulation after i.v. injection” value is “accumulated in several tissues including lymph nodes and the gastrointestinal tract”.
`CCC/C=C/C=C/C(=O)O[C@H]1[C@H]2C=C3C[C@H]([C@@H](C)O)OC(=O)C[C@H](O)C[C@@H]4C[C@H](OC(C)=O)C(C)(C)[C@](O)(C[C@@H]5C/C(=C\C(=O)OC)C[C@H](/C=C/C(C)(C)[C@]1(OC(=O)C2)O3)O5)O4` [bryostatin-3]: in [2] (Jurkat-LAT-GFP cells), the HIV-1 reactivation entry is recorded as “strongly induce HIV-1 reactivation”.
As to `CC(=O)c1c(O)c(C)c(O)c(Cc2c(O)c3c(c(C(=O)/C=C/c4ccccc4)c2O)OC(C)(C)C=C3)c1O` [rottlerin], the “Inhibition of GFP expression induced” value in [1] is recorded as “did not affect”.
Regarding bryostatin-2, the HIV-1 reactivation entry in data set [2] (Jurkat-LAT-GFP cells) is listed as “strongly induce HIV-1 reactivation”.

The values are drawn from patent US20100166806A1, “Combination therapy comprising the use of protein kinase C modulators and Histone Deacetylase inhibitors for treating HIV-1 latency” (Aphios Corporation, priority 2008, published 2010).
